The nature of this series: Visual aqueous solubility. The series is classed as physicochemical. Conditions: water added in portions to ~10 mg, assessed visually after brief equilibration. On the procedure: The salts and free base (˜10 mg) were weighed into glass vials and water was added in 0.1 mL portions up to 3 mL and 1 mL portions thereafter. Solubility was assessed visually following a brief period of equilibration.

These results are taken from patent US12398130B2, “Acid addition salts of piperazine derivatives” (Asceneuron SA, priority 2016, dated 2025).

Where a name gives a salt, the structure may show the parent alone.

For the molecule `CC(=O)Nc1nnc(N2CCN([C@@H](C)c3ccc4c(c3)OCO4)CC2)s1` [Example 69, (S)—N-(5-(4-(1-(benzo[d][1,3]dioxol-5-yl)ethyl)piperazin-1-yl)-1,3,4-thiadiazol-2-yl)acetamide], for the setting “listed as Free base”, the Visual aqueous solubility was below 500 µg/mL.
On to `CC(=O)Nc1nnc(N2CCN([C@@H](C)c3ccc4c(c3)OCO4)CC2)s1` [Hydrochloride salt, (S)—N-(5-(4-(1-(benzo[d][1,3]dioxol-5-yl)ethyl)piperazin-1-yl)-1,3,4-thiadiazol-2-yl)acetamide], for which the Visual aqueous solubility is around 4500 µg/mL.
Still for that read-out and setting: then `CC(=O)Nc1nnc(N2CCN([C@@H](C)c3ccc4c(c3)OCO4)CC2)s1` [L-Tartrate salt, (S)—N-(5-(4-(1-(benzo[d][1,3]dioxol-5-yl)ethyl)piperazin-1-yl)-1,3,4-thiadiazol-2-yl)acetamide], with around 20000 µg/mL; and `CC(=O)Nc1nnc(N2CCN([C@@H](C)c3ccc4c(c3)OCO4)CC2)s1` [Maleate salt, (S)—N-(5-(4-(1-(benzo[d][1,3]dioxol-5-yl)ethyl)piperazin-1-yl)-1,3,4-thiadiazol-2-yl)acetamide], with around 4500 µg/mL.
